Tests used:
[1] = cited from earlier work; for Tmax for brain: rat brain, intraperitoneal injection
[2] = in vitro microsomal stability; conditions: n=2, T1/2=Ln2/κ
[3] = biological target: mGlu4 (Homo sapiens, UniProt Q14833); assay: competitive binding assay with [^3H]2 in mGlu4 transfected CHO cells; conditions: 14 versus 13; 23 versus 2
[4] = PET ligand for PBR, cited from earlier work
[5] = biological target: mGlu1 (Homo sapiens, UniProt Q13255); assay: selectivity functional assay on mGlu1; assay type: cell-based
mGlu1, sequence (Q13255 19-1194): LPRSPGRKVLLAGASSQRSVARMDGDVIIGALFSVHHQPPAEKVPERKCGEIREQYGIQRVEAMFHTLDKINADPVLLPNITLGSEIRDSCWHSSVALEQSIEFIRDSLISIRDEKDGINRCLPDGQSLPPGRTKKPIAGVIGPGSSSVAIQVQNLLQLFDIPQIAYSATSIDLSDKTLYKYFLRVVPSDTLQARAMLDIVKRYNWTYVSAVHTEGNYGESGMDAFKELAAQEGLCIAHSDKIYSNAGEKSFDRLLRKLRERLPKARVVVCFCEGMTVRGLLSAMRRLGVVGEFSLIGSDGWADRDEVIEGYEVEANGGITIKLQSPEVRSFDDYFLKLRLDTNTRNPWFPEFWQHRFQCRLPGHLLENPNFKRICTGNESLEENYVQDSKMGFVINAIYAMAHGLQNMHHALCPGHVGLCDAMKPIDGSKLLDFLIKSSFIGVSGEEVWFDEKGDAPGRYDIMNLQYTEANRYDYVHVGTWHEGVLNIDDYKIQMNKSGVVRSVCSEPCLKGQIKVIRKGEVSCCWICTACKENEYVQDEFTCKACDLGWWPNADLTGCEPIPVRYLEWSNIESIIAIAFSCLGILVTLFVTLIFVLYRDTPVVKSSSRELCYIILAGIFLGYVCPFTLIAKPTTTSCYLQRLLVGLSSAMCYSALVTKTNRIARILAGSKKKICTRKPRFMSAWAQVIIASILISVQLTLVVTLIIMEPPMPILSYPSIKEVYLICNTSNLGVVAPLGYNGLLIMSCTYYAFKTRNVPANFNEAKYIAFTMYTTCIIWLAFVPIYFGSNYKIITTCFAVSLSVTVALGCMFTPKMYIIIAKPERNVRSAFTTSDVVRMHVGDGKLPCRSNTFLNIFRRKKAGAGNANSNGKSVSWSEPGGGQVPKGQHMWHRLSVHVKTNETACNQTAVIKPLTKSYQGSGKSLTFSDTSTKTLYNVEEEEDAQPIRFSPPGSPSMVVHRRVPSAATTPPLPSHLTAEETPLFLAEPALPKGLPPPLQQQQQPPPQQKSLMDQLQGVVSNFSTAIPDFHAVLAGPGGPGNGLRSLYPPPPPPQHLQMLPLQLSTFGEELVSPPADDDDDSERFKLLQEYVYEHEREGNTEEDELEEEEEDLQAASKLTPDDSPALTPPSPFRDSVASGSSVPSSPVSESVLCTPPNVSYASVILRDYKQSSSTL

[6] = biological target: mGlu6 (Homo sapiens, UniProt O15303); assay: selectivity functional assay on mGlu6; assay type: cell-based
mGlu6, sequence (O15303 25-877): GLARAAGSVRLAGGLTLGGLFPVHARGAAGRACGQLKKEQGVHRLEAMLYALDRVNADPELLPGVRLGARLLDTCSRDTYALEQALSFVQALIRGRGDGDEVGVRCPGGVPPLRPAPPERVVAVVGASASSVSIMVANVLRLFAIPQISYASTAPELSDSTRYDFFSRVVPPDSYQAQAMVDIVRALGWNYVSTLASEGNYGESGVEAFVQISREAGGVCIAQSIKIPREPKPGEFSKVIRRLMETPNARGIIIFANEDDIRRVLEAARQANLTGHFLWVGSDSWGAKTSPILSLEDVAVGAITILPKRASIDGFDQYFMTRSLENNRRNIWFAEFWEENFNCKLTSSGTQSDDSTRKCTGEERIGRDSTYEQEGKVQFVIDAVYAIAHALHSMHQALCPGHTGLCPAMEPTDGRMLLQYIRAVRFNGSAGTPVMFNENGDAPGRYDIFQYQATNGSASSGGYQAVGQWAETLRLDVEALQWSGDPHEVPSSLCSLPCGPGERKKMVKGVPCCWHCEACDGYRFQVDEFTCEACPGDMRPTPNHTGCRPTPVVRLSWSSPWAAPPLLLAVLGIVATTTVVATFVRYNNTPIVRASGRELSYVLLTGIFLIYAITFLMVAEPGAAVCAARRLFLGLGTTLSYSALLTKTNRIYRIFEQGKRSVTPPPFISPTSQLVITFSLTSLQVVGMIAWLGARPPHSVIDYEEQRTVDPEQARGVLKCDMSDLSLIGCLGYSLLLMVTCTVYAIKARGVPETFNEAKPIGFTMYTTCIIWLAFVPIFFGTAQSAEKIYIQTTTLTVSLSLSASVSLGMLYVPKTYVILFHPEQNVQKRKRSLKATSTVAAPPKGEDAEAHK

[7] = biological target: mGlu2 (Homo sapiens, UniProt Q14416); assay: selectivity functional assay on mGlu2; assay type: cell-based
mGlu2, sequence (Q14416 19-872): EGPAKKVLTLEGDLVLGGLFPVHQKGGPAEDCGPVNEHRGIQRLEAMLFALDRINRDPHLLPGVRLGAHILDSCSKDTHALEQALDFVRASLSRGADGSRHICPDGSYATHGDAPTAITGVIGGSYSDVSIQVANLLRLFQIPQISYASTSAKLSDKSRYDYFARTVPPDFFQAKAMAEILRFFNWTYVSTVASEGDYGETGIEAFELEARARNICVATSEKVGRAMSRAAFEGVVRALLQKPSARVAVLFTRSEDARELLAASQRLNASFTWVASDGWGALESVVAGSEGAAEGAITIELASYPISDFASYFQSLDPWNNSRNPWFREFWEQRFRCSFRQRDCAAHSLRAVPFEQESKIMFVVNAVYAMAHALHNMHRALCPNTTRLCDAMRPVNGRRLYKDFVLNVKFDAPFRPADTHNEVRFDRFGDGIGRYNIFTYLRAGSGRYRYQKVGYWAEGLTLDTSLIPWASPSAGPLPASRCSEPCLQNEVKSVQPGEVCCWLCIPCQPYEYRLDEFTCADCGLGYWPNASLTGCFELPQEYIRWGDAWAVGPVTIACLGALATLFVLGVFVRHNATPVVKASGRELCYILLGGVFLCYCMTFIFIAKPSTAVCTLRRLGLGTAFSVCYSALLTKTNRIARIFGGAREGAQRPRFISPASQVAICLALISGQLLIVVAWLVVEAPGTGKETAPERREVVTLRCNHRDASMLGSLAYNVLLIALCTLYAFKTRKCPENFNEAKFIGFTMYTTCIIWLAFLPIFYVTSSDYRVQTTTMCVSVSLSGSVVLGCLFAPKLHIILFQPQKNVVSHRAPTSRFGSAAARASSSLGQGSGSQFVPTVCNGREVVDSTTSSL

[8] = biological target: mGlu8 (Homo sapiens, UniProt O00222); assay: selectivity functional assay on mGlu8; assay type: cell-based
mGlu8, sequence (O00222 34-908): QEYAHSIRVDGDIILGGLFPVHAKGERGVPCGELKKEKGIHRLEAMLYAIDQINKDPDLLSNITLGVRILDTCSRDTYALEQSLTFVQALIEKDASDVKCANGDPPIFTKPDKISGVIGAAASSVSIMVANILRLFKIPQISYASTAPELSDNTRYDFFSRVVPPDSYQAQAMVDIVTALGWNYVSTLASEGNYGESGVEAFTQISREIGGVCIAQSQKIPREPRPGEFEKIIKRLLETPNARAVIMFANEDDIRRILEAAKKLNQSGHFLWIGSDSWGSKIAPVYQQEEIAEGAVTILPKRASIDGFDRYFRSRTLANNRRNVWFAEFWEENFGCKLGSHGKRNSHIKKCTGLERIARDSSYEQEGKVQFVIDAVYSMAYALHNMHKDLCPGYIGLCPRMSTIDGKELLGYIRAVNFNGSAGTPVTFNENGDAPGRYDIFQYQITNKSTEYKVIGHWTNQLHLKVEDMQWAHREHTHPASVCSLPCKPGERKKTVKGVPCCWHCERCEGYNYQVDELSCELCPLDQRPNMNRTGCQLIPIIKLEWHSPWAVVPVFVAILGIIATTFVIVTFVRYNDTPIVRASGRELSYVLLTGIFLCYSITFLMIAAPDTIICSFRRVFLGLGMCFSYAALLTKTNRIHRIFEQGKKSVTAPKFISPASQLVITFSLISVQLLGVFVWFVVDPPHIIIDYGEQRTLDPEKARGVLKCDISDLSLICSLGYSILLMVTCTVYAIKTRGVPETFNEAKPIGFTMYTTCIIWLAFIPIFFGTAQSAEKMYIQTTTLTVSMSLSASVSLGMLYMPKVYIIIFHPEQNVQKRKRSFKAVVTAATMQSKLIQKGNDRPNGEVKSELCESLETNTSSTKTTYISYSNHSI

[9] = biological target: mGlu5 (Homo sapiens, UniProt P41594); assay: selectivity functional assay on mGlu5; assay type: cell-based

mGlu4, sequence (Q14833 33-912): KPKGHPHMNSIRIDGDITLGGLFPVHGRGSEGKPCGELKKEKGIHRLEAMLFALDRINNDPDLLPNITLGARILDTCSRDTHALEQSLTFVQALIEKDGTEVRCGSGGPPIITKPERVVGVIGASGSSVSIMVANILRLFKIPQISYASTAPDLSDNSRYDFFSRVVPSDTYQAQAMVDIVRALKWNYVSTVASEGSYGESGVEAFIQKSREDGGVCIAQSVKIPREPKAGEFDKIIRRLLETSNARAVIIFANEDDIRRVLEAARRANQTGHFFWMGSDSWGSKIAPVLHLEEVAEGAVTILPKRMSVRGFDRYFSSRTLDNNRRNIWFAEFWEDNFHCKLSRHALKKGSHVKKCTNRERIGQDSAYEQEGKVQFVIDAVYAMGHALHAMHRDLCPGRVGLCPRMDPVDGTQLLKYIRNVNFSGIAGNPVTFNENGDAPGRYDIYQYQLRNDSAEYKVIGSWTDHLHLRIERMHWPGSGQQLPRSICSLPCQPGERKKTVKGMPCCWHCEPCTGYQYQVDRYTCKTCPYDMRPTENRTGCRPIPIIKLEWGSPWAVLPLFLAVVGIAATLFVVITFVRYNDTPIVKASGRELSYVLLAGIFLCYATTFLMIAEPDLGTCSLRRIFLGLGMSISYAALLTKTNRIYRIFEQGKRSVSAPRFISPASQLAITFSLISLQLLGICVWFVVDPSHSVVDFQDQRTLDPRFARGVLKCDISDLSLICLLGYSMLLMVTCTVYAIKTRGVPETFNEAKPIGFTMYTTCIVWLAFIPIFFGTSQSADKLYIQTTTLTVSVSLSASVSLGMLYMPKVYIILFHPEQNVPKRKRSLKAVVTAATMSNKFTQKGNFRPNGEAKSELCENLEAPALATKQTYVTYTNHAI

Structure (SMILES): O=C(Nc1cccc(OC(F)F)c1)c1ccccn1 [Compound 3]
- Tmax for brain [1]: 30 min
- brain:plasma (B/P) partition coefficient ([1]; rat, AUC0–8h, Brain/AUC0–8h, Plasma): 9.9
- κ (decay constant, slope of log concentration vs time profile) [2]: 0.132

Structure (SMILES): Cc1ccnc(Nc2nc(-c3cn[nH]c3)c(C)s2)n1 [Compound 4]
- κ (decay constant, slope of log concentration vs time profile) [2]: 0.099

Structure (SMILES): CSc1cccc(NC(=O)c2ccccn2)c1 [Compound 14]
- fold enhancement in affinity [3]: 2.8 fold

Structure (SMILES): [2H]C([2H])([18F])Oc1ccc(OC)cc1CN(C(C)=O)c1cc(F)ccc1Oc1ccccc1 [N-(5-fluoro-2-phenoxyphenyl)-N-(2-[^18F]fluoromethoxy-d2-5-methoxybenzyl)acetamide]
- half time (T1/2) in the brain ([4]; brain): > 60 min
- half time (T1/2) in the plasma ([4]; plasma): 2.575 min

Structure (SMILES): O=C(Nc1ccc(Cl)c(OCF)c1)c1ccccn1 [Compound 23]
- fold enhancement in affinity [3]: 1.6 fold
- κ (decay constant, slope of log concentration vs time profile) [2]: 0.120

Structure (SMILES): COc1cc(NC(=O)c2ccccn2)ccc1Cl [Compound 2]
- Tmax for brain [1]: 30 min
- κ (decay constant, slope of log concentration vs time profile) [2]: 0.141

Structure (SMILES): [2H]C([2H])(F)Oc1cc(NC(=O)c2ccccn2)ccc1Cl [Compound 24]
- activity against mGlu1 [5]: little activity
- activity against mGlu6 [6]: little activity
- κ (decay constant, slope of log concentration vs time profile) [2]: 0.093
- activity against mGlu2 [7]: little activity
- activity against mGlu8 [8]: little activity
- activity against mGlu5 [9]: little activity

— PMC4539532 (Bioorganic & medicinal chemistry letters, 2015)
